Laboratory results from US11077090B2, “Compounds and compositions and uses thereof” (Sunovion Pharmaceuticals Inc., priority 2016, dated 2021).

System: compound-treated mice
Assay: Neuropharmacological assay (SmartCube): behavioral activity signature and minimal effective dose
Type: in vivo
Conditions: for minimal effective dose: Mus musculus, ip, MED = dose having 50% or more total activity, read-out: Potency: minimal effective dose (MED), binned; for AD: ADHD (probability of activity signature) / AG: analgesic (probability of activity signature) / AX: anxiolytic (probability of activity signature) / CE: cognitive enhancer (probability of activity signature) / DP: anti-depressant (probability of activity signature) / MS: mood stabilizer (probability of activity signature) / PS: anti-psychotic (probability of activity signature) / SD: sedative hypnotic (probability of activity signature) / UN: uncharacterized CNS activity (probability of activity signature): i.p. 15 min before test, most efficacious dose(s)
How it was run: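 Video-recorded behavior is compared algorithmically against a reference-compound database, yielding class probabilities (best dose reported). Compounds given i.p. in NMP/PEG/propylene glycol 15 min pre-test at 3 doses; potency as MED, the dose (mpk, range usually 0.3–30) reaching ≥50% total activity.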

Row | Compound | minimal effective dose | AD: ADHD (probability of activity signature) | AG: analgesic (probability of activity signature) | AX: anxiolytic (probability of activity signature) | CE: cognitive enhancer (probability of activity signature) | DP: anti-depressant (probability of activity signature) | MS: mood stabilizer (probability of activity signature) | PS: anti-psychotic (probability of activity signature) | SD: sedative hypnotic (probability of activity signature) | UN: uncharacterized CNS activity (probability of activity signature)
1 | COc1cccc2c1[C@H](N)[C@H](C)OC2.Cl [Example 230] | 3 to 10 mg/kg | + (LOQ ≤ + <5%) | + (LOQ ≤ + <5%) | ++ (5% ≤ ++ <25%) | ++ (5% ≤ ++ <25%) | + (LOQ ≤ + <5%) | + (LOQ ≤ + <5%) | ++ (5% ≤ ++ <25%) | + (LOQ ≤ + <5%) | ++++ (50% ≤ ++++)
2 | COc1cccc2c1[C@H](N)[C@@H](C)OC2.Cl [Example 231] | 10 to 30 mg/kg | + (LOQ ≤ + <5%) | ++ (5% ≤ ++ <25%) | ++ (5% ≤ ++ <25%) | ++ (5% ≤ ++ <25%) | ++ (5% ≤ ++ <25%) | + (LOQ ≤ + <5%) | + (LOQ ≤ + <5%) | + (LOQ ≤ + <5%) | +++ (25% ≤ +++ <50%)
3 | COc1ccc2c(c1)CO[C@H](C)[C@H]2N.Cl [Example 232] | 10 to 30 mg/kg | + (LOQ ≤ + <5%) | ++ (5% ≤ ++ <25%) | ++ (5% ≤ ++ <25%) | + (LOQ ≤ + <5%) | + (LOQ ≤ + <5%) | + (LOQ ≤ + <5%) | + (LOQ ≤ + <5%) | + (LOQ ≤ + <5%) | ++ (5% ≤ ++ <25%)
4 | COc1ccc2c(c1)CO[C@@H](C)[C@H]2N.Cl [Example 233] | > 30 mg/kg | + (LOQ ≤ + <5%) | ++ (5% ≤ ++ <25%) | ++ (5% ≤ ++ <25%) | ++ (5% ≤ ++ <25%) | + (LOQ ≤ + <5%) | + (LOQ ≤ + <5%) | + (LOQ ≤ + <5%) | + (LOQ ≤ + <5%) | + (LOQ ≤ + <5%)
5 | COc1cccc2c1CO[C@@H](C)[C@H]2N.Cl [Example 234] | 10 to 30 mg/kg | + (LOQ ≤ + <5%) | ++ (5% ≤ ++ <25%) | +++ (25% ≤ +++ <50%) | ++ (5% ≤ ++ <25%) | + (LOQ ≤ + <5%) | + (LOQ ≤ + <5%) | ++ (5% ≤ ++ <25%) | ++ (5% ≤ ++ <25%) | ++ (5% ≤ ++ <25%)
6 | COc1cccc2c1CO[C@H](C)[C@H]2N.Cl [Example 235] | > 30 mg/kg | + (LOQ ≤ + <5%) | + (LOQ ≤ + <5%) | ++ (5% ≤ ++ <25%) | + (LOQ ≤ + <5%) | + (LOQ ≤ + <5%) | + (LOQ ≤ + <5%) | + (LOQ ≤ + <5%) | + (LOQ ≤ + <5%) | + (LOQ ≤ + <5%)
7 | Cc1cc2c(cc1C)[C@H](N)[C@H](C)OC2.Cl [Example 237] | 10 to 30 mg/kg | + (LOQ ≤ + <5%) | + (LOQ ≤ + <5%) | ++ (5% ≤ ++ <25%) | + (LOQ ≤ + <5%) | + (LOQ ≤ + <5%) | + (LOQ ≤ + <5%) | ++ (5% ≤ ++ <25%) | +++ (25% ≤ +++ <50%) | ++ (5% ≤ ++ <25%)
8 | Cc1cc2c(cc1C)[C@H](N)[C@@H](C)OC2.Cl [Example 238] | 10 to 30 mg/kg | + (LOQ ≤ + <5%) | + (LOQ ≤ + <5%) | ++ (5% ≤ ++ <25%) | ++ (5% ≤ ++ <25%) | + (LOQ ≤ + <5%) | + (LOQ ≤ + <5%) | ++ (5% ≤ ++ <25%) | + (LOQ ≤ + <5%) | ++++ (50% ≤ ++++)
9 | C[C@@H]1OCc2ccc3c(c2[C@@H]1N)CCCO3.Cl [Example 248] | 10 to 30 mg/kg | + (LOQ ≤ + <5%) | ++ (5% ≤ ++ <25%) | ++ (5% ≤ ++ <25%) | ++ (5% ≤ ++ <25%) | + (LOQ ≤ + <5%) | + (LOQ ≤ + <5%) | + (LOQ ≤ + <5%) | + (LOQ ≤ + <5%) | +++ (25% ≤ +++ <50%)
10 | C[C@H]1OCc2ccc3c(c2[C@@H]1N)CCCO3.Cl [Example 249] | 3 to 10 mg/kg | + (LOQ ≤ + <5%) | ++ (5% ≤ ++ <25%) | ++ (5% ≤ ++ <25%) | ++ (5% ≤ ++ <25%) | + (LOQ ≤ + <5%) | + (LOQ ≤ + <5%) | ++ (5% ≤ ++ <25%) | + (LOQ ≤ + <5%) | +++ (25% ≤ +++ <50%)
11 | CCC[C@@H]1OCc2ccccc2[C@@H]1N [Example 250] | 3 to 10 mg/kg | ++ (5% ≤ ++ <25%) | + (LOQ ≤ + <5%) | ++ (5% ≤ ++ <25%) | + (LOQ ≤ + <5%) | + (LOQ ≤ + <5%) | ++ (5% ≤ ++ <25%) | ++ (5% ≤ ++ <25%) | ++ (5% ≤ ++ <25%) | + (LOQ ≤ + <5%)
12 | Cc1ccc2c(c1)CO[C@H](C)[C@H]2N [Example 252] | < 3 mg/kg | + (LOQ ≤ + <5%) | + (LOQ ≤ + <5%) | + (LOQ ≤ + <5%) | + (LOQ ≤ + <5%) | ++ (5% ≤ ++ <25%) | ++ (5% ≤ ++ <25%) | ++ (5% ≤ ++ <25%) | ++ (5% ≤ ++ <25%) | ++++ (50% ≤ ++++)
13 | Cc1ccc2c(c1)CO[C@@H](C)[C@@H]2N [Example 253] | 3 to 10 mg/kg | + (LOQ ≤ + <5%) | + (LOQ ≤ + <5%) | + (LOQ ≤ + <5%) | + (LOQ ≤ + <5%) | ++ (5% ≤ ++ <25%) | ++ (5% ≤ ++ <25%) | ++ (5% ≤ ++ <25%) | ++ (5% ≤ ++ <25%) | ++ (5% ≤ ++ <25%)
14 | Cc1cccc2c1[C@H](C)OC[C@@H]2N [Example 255] | 10 to 30 mg/kg | + (LOQ ≤ + <5%) | + (LOQ ≤ + <5%) | + (LOQ ≤ + <5%) | + (LOQ ≤ + <5%) | + (LOQ ≤ + <5%) | + (LOQ ≤ + <5%) | + (LOQ ≤ + <5%) | ++ (5% ≤ ++ <25%) | ++ (5% ≤ ++ <25%)
15 | CC[C@@H]1OCc2ccccc2[C@@H]1NC.Cl [Example 258] | 3 to 10 mg/kg | + (LOQ ≤ + <5%) | + (LOQ ≤ + <5%) | + (LOQ ≤ + <5%) | + (LOQ ≤ + <5%) | ++ (5% ≤ ++ <25%) | ++ (5% ≤ ++ <25%) | + (LOQ ≤ + <5%) | ++ (5% ≤ ++ <25%) | + (LOQ ≤ + <5%)
